Data taken from PMC4855620, “Structure‐activity relationship of the peptide binding‐motif mediating the BRCA2:RAD51 protein–protein interaction” (Febs Letters, 2016).
Substitutions are numbered along the chain they refer to. In names and notes the source's numbering stands. Entries after “also recorded” stand apart in the source; their conditions may differ. Where two headings read alike, the source gives them in different places. Residues, ends and D or L forms follow the SMILES beside them.

B1: RAD51 A89E: RAD51 with oligomerisation sequence FTTA mutated to FTTE (literature) (protein, UniProt Q06609 2-339, looked up, variant A89E)
DNA repair protein RAD51 …: AMQMQLEANADTSVEEESFGPQPISRLEQCGINANDVKKLEEAGFHTVEAVAYAPKKELINIKGISEAKADKILAEAAKLVPMGFTTETEFHQRRSEIIQITTGSKELDKLLQGGIETGSITEMFGEFRTGKTQICHTLAVTCQLPIDRGGGEGKAMYIDTEGTFRPERLLAVAERYGLSGSDVLDNVAYARAFNTDHQTQLLYQASAMMVESRYALLIVDSATALYRTDYSGRGELSARQMHLARFLRMLLRLADEFGVAVVITNQVVAQVDGAAMFAADPKKPIGGNIIAHASTTRLYLRKGRGETRICKIYDSPCLPEAEAMFAINADGVGDAKD
B2: RAD51 F86E: RAD51 with oligomerisation sequence FTTA mutated to ETTA (literature) (protein, UniProt Q06609 2-339, looked up, variant F86E)
DNA repair protein RAD51 …: B1 DNA repair protein RAD51 … with F85E, E88A

Experiments:
[1] = target: HumRadA2 (humanised, monomeric RadA; surrogate for RAD51) (Pyrococcus furiosus, UniProt O74036); assay: Isothermal titration calorimetry of peptides against HumRadA2; assay type: binding; conditions: for ΔH: Tris pH 7.5, 100 mM NaCl, low c-value conditions, ± = model-fitting error; for TΔS: ΔS derived from ΔG by subtracting ΔH; for Change in binding affinity relative to FHTA: ITC K D compared with FHTA
Procedure: Protein expression and purification was performed as described previously 15. In brief, monomeric HumRadA2 was expressed in E. coli using T7‐based expression vector at 37 °C for 3 h. Soluble cell lysate was heat treated to precipitate most of the cellular proteins and the soluble fraction containing HumRadA2 was purified using a combination of cation exchange chromatography at pH 6.0 and size‐exclusion chromatography in 10 mM MES, 100 mM NaCl pH 6.0 buffer. Protein concentration was determined using the calculated extinction coefficient at 280 nm, and stored at −80 °C in small aliquots after flash freezing.
Isothermal titration calorimetry experiments were performed at 25 °C on a MicroCal iTC200. HumRadA2 (600 μM in 20 mM MES pH 6.0 with 100 mM NaCl and 0.5 mM EDTA) was diluted with Tris buffer (200 mM, pH 7.5 with 100 mM NaCl) to 64–83 μM. […] The peptide solution was titrated into the protein solution; 16 injections (2.4 μL) of 4.8 s duration were made at 80‐s intervals. The initial injection of ligand (0.4 μL) was discarded during data analysis. […] The data were processed and thermodynamic parameters obtained by fitting the data to a single‐site‐binding model using Origin software and fixing the stoichiometry as 1.0 for weak‐binding ligands 16.

[2] = target: HumRadA2 (humanised, monomeric RadA from Pyrococcus furiosus) (Pyrococcus furiosus) (UniProt O74036); assay: ITC; peptide (2.5-5 mM) titrated into HumRadA2 (64-83 μM) at 25 °C, MicroCal iTC200, 200 mM Tris pH 7.5, 100 mM NaCl; single-site model, stoichiometry fixed as 1.0 for weak-binding ligands; low c-value conditions
[3] = target: HumRadA2 (humanised, monomeric RadA from Pyrococcus furiosus) (Pyrococcus furiosus) (UniProt O74036); assay: as above; remark: listed apart in the source
RAD51 = RAD51 oligomerisation sequence FTTA mutated; cited from earlier work
Description: Table 1 Summary of FxxA‐relevant mutations previously reported and degree of characterisation. The mutation, relevant peptide context, resulting FxxA motif sequence and experimental technique for each entry is given. For clarity, mutated residues are shown in bold | column: Effect

[4] = ITC, 25 °C, MicroCal iTC200, peptide 2.5–5 mM in 200 mM Tris pH 7.5, 100 mM NaCl titrated into 64–83 μM HumRadA2, single-site model, stoichiometry fixed at 1.0 for weak binders, ± = fitting error

Molecule | Kd [1, 4] [µM] | ΔH ([1]; ITC, 25 °C) [kcal/mol] | TΔS ([1]; ITC, 25 °C) [kcal/mol] | dH [2] [kcal/mol] | further results
CC(=O)N[C@@H](Cc1ccccc1)C(=O)N[C@@H](Cc1c[nH]cn1)C(=O)N[C@@H](C)C(=O)N[C@@H](C)C(N)=O [FHAA] (Ac-FHAA-NH2) | 675 ± 60 | -7.948 ± 0.466 | -3.636 | – | –
CC(=O)N[C@@H](Cc1ccccc1)C(=O)N[C@@H](Cc1c[nH]cn1)C(=O)N1CCC[C@H]1C(=O)N[C@@H](C)C(N)=O [FHPA] (Ac-FHPA-NH2) | 113 ± 3 | -2.155 ± 0.026 | 3.218 | – | –
CC(=O)N[C@@H](Cc1ccccc1)C(=O)N[C@@H](Cc1c[nH]cn1)C(=O)N[C@H](C(=O)N[C@@H](C)C(N)=O)[C@@H](C)O [FHTA] (Ac-FHTA-NH2) | – | -2.388 ± 0.094 | 2.453 | – | –
CC(=O)N[C@@H](Cc1ccccc1)C(=O)N[C@@H](Cc1c[nH]cn1)C(=O)N[C@H](C(=O)NCC(N)=O)[C@@H](C)O [FHTG] (Ac-FHTG-NH2) | 1590 ± 300 | -5.518 ± 0.924 | -1.702 | – | Change in binding affinity relative to FHTA [1]: approximately sixfold drop in binding affinity
CC[C@H](NC(=O)[C@@H](NC(=O)[C@H](Cc1c[nH]cn1)NC(=O)[C@H](Cc1ccccc1)NC(C)=O)[C@@H](C)O)C(N)=O [FHTU] (HELM PEPTIDE1{[ac].F.H.T.[Abu].[am]}$$$$V2.0) | 680 ± 51 | – | – | – | –
CC(=O)N[C@@H](Cc1ccccc1)C(=O)N[C@@H](CC(N)=O)C(=O)N[C@H](C(=O)N[C@@H](C)C(N)=O)[C@@H](C)O [FNTA] (Ac-FNTA-NH2) | 613 ± 44 | -4.036 ± 0.177 | 0.346 | – | –
CC(=O)N[C@@H](Cc1c[nH]c2ccccc12)C(=O)N[C@@H](Cc1c[nH]cn1)C(=O)N1CCC[C@H]1C(=O)N[C@@H](C)C(N)=O [WHPA] (Ac-WHPA-NH2) | 330 ± 25 | -6.801 ± 0.318 | -2.044 | – | Change in binding affinity relative to FHTA [1]: no improvement
CC(=O)N[C@@H](Cc1c[nH]c2ccccc12)C(=O)N[C@@H](Cc1c[nH]cn1)C(=O)N[C@H](C(=O)N[C@@H](C)C(N)=O)[C@@H](C)O [WHTA] (Ac-WHTA-NH2) | 93 ± 3 | -2.768 ± 0.034 | 2.727 | – | Change in binding affinity relative to FHTA [1]: increase the binding affinity of the peptide approximately threefold
FHTU tetrapeptide (U = α-amino butyric acid) | – | – | – | -14.6 | –
FPTA [N-acetylated, C-amide terminated tetrapeptide FPTA] | – | – | – | – | K D [1, 4]: no affinity for the protein; also recorded: No detectable binding
Ac-WHPA-NH2 [WHPA tetrapeptide] | – | – | – | -6.8 | Kd [3]: 690 µM
Ac-FNTA-NH2 [FNTA tetrapeptide] | – | – | – | -4.04 | –
Ac-FHPA-NH2 [FHPA tetrapeptide] | – | – | – | -2.16 | –
B1 | – | – | – | – | Effect of mutation (binding) (RAD51): No binding
B2 | – | – | – | – | Effect of mutation (binding) (RAD51): No binding
Ac-WHTA-NH2 [WHTA tetrapeptide] | – | – | – | -2.77 | –
Ac-FHTA-NH2 [FHTA tetrapeptide (FxxA motif of BRC4 of BRCA2)] | – | – | – | -2.39 | Kd [2]: 280 µM
Ac-FHTG-NH2 [FHTG tetrapeptide] | – | – | – | -5.52 | –
Ac-FHAA-NH2 [FHAA tetrapeptide] | – | – | – | -7.95 | –
